4 substances from patent US8466104B2, “Therapeutically active alpha MSH analogues” (AbbVie Inc., priority 2005, dated 2013) can be followed below.

For test [1], the system named is cisplatin induced renal failure in rats. Kind of test: Inhibition of cisplatin induced renal failure (experimental setup 7). The test is classed as in vivo, rat. The settings on record: for effect on cisplatin induced fall in GFR / effect on cisplatin induced hypomagnesemia: rats treated with cisplatin; for Plasma Mg: rats treated with cisplatin 5.0 mg/kg ip, 200 μg/kg iv test compound. As for the experimental part:
Inhibition of Cisplatin Induced Renal Failure
Rats, which previously have been instrumented with a chronic venous catheter, are placed in metabolic cages and after a period of acclimation to the metabolic cages the rats are treated with an intreperitoneal cisplatin injection 5.0 mg/kg bw in 0.5 ml 150 mM NaCl or vehicle (0.5 ml 150 mM NaCl). Five days later the rats are then returned to metabolic cages, and daily 24 h urine output and water intake are measured and collected for the next five days. All rats are then anesthetized in halothan/N2O and an arterial blood sample collected in prechilled EDTA coated vials. The blood samples are collected in a prechilled test tube with 0.5 mM EDTA, pH 7.4, and 20×10^6 IU/ml aprotinin. After centrifugation at 4° C., plasma samples are transferred to pre-chilled test tubes and stored at −20° C. for later measurements of creatinine and Magnesium (Mg). In addition to this creatinine is also measured in the urine collected in the last 24 hours period prior to the blood collection. […] Measurement of creatinine in urine and plasma is performed by use of the clinical chemistry systems VITROS 950 (Ortho-Clinical Diagnostics Inc., Johnson & Johnson, NJ) and Roche Hitachi Modular (Roche Diagnostics, Mannheim, Germany).
The rats are subjected to one of the following i.v treatments: • Vehicle: 0.5 ml 150 mM NaCl • a-MSH: 200 μg o-melanocyte stimulating hormone/kg b.w. in 0.5 ml 150 mM NaCl. • Test compound: 200 μg test compound/kg b.w. in 0.5 ml 150 mM NaCl. Treatment is given 5 minutes prior to reperfusion of the kidney and subsequently 6 and 24 hours later. Statistics
Data are presented as mean±S.E. Within group comparisons are analysed with Student's paired t test. Between group comparisons are performed by one way analysis of variance followed by Fishers Least Significant Difference test. Differences are considered significant at the 0.05 level.

Test [2] deals with LPS induced TNF-α in plasma. Kind of test: Inhibition of LPS induced TNFa production in rats in vivo (experimental setup 2). Details: species or system rat. The settings on record: for inhibitory effect on plasma TNF-a compared to native a-MSH / TNF-a concentration in plasma, % of the maximal response (LPS-Vehicle) / dose at which the maximal inhibitory effect on TNF-a is achieved: iv LPS infusion; for TNF-a concentration in plasma, % of the maximal response (LPS-Vehicle): 200 μg/kg body weight iv, 120 minutes after initiation of LPS infusion; for dose at which the maximal inhibitory effect on TNF-a is achieved: doses 50, 200, 1000 μg/kg tested. How it is done:
Inhibition of LPS Induced TNFa Production in Rats In Vivo
Experimental animals. Female Wistar rats (220-240 g) are obtained from the Charles River, Sulzfeld, Germany, and housed in a temperature- (22-24° C.) and moisture-controlled (40-70%) room with a 12 h light-dark cycle (light on from 6:00 A.M. to 6:00 P.M.). The rats are maintained on a standard rodent diet with 140 mmol/kg of sodium, 275 mmol/kg potassium and 23% protein (Altromin International, Lage, Germany) and have free access to water.
Animal preparation. […] After instrumentation, the animals are housed individually for 7-10 days until the day of the experiment.
Experimental protocol. Prior to the experiments all rats are adapted to the restraining cage used for the experiments by training them for two periods of two hours each. On the day of the experiment, the animal is transferred to a restraining cage, and an intravenous infusion of vehicle solution containing 150 mM glucose is started. The infusion rate is 0.5 ml/h throughout the experiment. After a short adaptation period, infusion of lipopolysaccharide (LPS) is started. LPS (E coli serotype 0127 B8, L 3129, Sigma, St. Louis, USA) is given at a dose of 4 mg/kg body weight delivered as an i.v. infusion over 1 hour. Arterial blood samples of 0.3 ml are taken 60, 90, and 120 minutes after start of the LPS infusion and replaced immediately with heparinized blood from a normal donor rat.
In addition to LPS infusion all rats are treated with a bolus injection of: • Vehicle (0.5 mL isotonic saline); • a-MSH in one of the following doses: 50 μg/kg bw; 200 μg/kg/bw or 1000 μg/kg bw; • Test compound in one of the following doses: 50 μg/kg bw; 200 μg/kg/bw or 1000 μg/kg bw.
Measurement of TNF-α in plasma: The blood samples are collected in a prechilled test tube with 0.5 mM EDTA, pH 7.4, and 20×10^6 IU/ml aprotinin. After centrifugation at 4° C., plasma samples are transferred to pre-chilled test tubes and stored at −20° C. for later measurements of TNF-α. TNF-α in plasma is determined by an ELISA (Biotrak, Amersham, UK).
Statistical analyses. Results are presented as means±SE. A two-way ANOVA for repeated measures is used to test for differences between groups. In case of P<0.05, the differences between corresponding periods are evaluated by unpaired t-tests with Bonferroni's correction of the level of significance.

The subject of test [3] is LPS induced TNF-α production by human leucocytes (PBMC). Kind of test: Inhibition of LPS induced TNF-a production by human leucocytes in vitro (experimental setup 1). The settings on record: for dose dependent reduction of LPS induced TNF-a accumulation / inhibitory effect on TNF-a accumulation compared to native a-MSH / LPS induced TNF-a accumulation, % of the maximal response (LPS-Vehicle): human leucocyte suspension; for LPS induced TNF-a accumulation, % of the maximal response (LPS-Vehicle): 10 ng LPS/mL, 18 hours, maximal effect (10^−7 M); for concentration at which the maximal inhibitory effect on LPS-induced TNF-α production was achieved: human lymphocyte suspension. The format is cell-based. As for the experimental part: Inhibition of LPS Induced TNF-a Production by Human Leucocytes In Vitro
20 mL human blood is collected in vacutainer tubes containing EDTA. PBMC is isolated using Ficoll-Paque Plus as in Amersham's Instruction 71-7167-00 AD, 2002-06. PBMC is counted using Tryphan Blue Solution (Sigma) and incubated in RPMI 1640, (Applichem), supplemented with 10 mM Hepes (Sigma), 2 mM L-glutamin (Sigma), 0.1% BSA (Sigma) and 50U/50 μg/mL Penicillin/Streptomycin (Sigma) in the concentration 5×10^5 cells/mL. The isolated PBMC is incubated in a humidified 5% CO2, 95% air atmosphere, at 37° C., in 24 well flat-bottomed plates (Corning Incorporated) with medium, 10 ng LPS/mL (Sigma), and test compound. After 18 hours the samples are centrifuged, and TNF-α in the supernatants is measured using Tumour Necrosis Factor Alpha [(h)TNF-α] from Human Biotrak ELISA System (Amersham).
The samples are incubated as following per donor: • PBMC's in RPMI (Time Control) • PBMC's with 10 ng LPS/mL (Vehicle) • PBMC's, 10 ng LPS/mL, 10^−17M a-MSH or a-MSH analogue • PBMC's, 10 ng LPS/mL, 10^−15M a-MSH or a-MSH analogue • PBMC's, 10 ng LPS/mL, 10^−13M a-MSH or a-MSH analogue • PBMC's, 10 ng LPS/mL, 10^−11M a-MSH or a-MSH analogue • PBMC's, 10 ng LPS/mL, 10^−9M a-MSH or a-MSH analogue • PBMC's, 10 ng LPS/mL, 10^−7M a-MSH or a-MSH analogue
All samples are diluted from an initial stock solution between 1.4×10^−4M and 1.8×10^−3M. All solutions are handled in BSA coated vials in order to protect against binding of the compound to the surface of the vials.
Data is presented as mean±SE. The effect of test compounds on LPS induced TNF-a liberation is expressed as percentage of the TNF-a accumulation in the LPS-vehicle group. All comparisons are analysed with Student's unpaired t-test. Differences are considered significant at probability levels (p) of 0.05.

Several values for one entry are separate records, joined by “and”; a condition that tells them apart may be missing. Equal entries are not always repeated. Entries after “also recorded” stand apart in the source; their conditions may differ. Where two headings read alike, the source gives them in different places.

“Ac-Lys-Lys-Lys-Lys-Lys-Lys-Ser-Tyr-Ser-Met-Glu-His-Phe-Arg-Trp-Gly-Lys-Pro-Val-NH2 (Ac-KKKKKKSYSMEHFRWGKPV-NH2) [a-MSH analogue #1]”: in test [1], the “effect on cisplatin induced fall in GFR” value was “prevents the cisplatin induced fall in GFR”, the “effect on cisplatin induced hypomagnesemia” value was “prevents cisplatin induced hypomagnesemia” and the “Plasma Mg” value was 0.84 ± 0.04 mM. Also, in test [2], the “reduction of TNF-a accumulation during iv infusion of LPS” value is listed as “reduce TNF-a accumulation”; the “inhibitory effect on plasma TNF-a compared to native a-MSH” value is given as “markedly more pronounced”; the “TNF-a concentration in plasma, % of the maximal response (LPS-Vehicle)” value (shortened to “TNF-a concentration in plasma, %”) is 9±1%; the “dose at which the maximal inhibitory effect on TNF-a is achieved” value was determined as 200 μg/kg body weight. Further, in test [2] (listed as SEQ ID NO: 1*), the “inhibitory effect on plasma TNF-a compared to native a-MSH” value is reported as “higher degree” and the “reduction of TNF-a accumulation during iv infusion of LPS” value was “significantly inhibit”. Further, in test [3], the “dose dependent reduction of LPS induced TNF-a accumulation” value (shortened to “dose dependent reduction”) was “dose dependently reduce”; the “inhibitory effect on TNF-a accumulation compared to native a-MSH” value is “markedly more pronounced”; the “LPS induced TNF-a accumulation, % of the maximal response (LPS-Vehicle)” value (shortened to “LPS induced TNF-a accumulation, %”) is listed as 47±2%; the “concentration at which the maximal inhibitory effect on LPS-induced TNF-α production was achieved” value is 10^−7 M.

On to “Ac-Lys-Lys-Lys-Lys-Lys-Lys-Ser-Tyr-Ser-Nle-Glu-His-(D-Phe)-Arg-Trp-Gly-Lys-Pro-Val-NH2 (KKKKKKSYSXEHFRWGKPV; N-acetyl, Nle, D-Phe, C-amide) [a-MSH analogue #2]”, for which, in test [1], the “effect on cisplatin induced fall in GFR” value is given as “prevents cisplatin induced hypomagnesemia as well as the cisplatin induced fall in GFR” and the “effect on cisplatin induced hypomagnesemia” value is listed as “prevents cisplatin induced hypomagnesemia”. Moreover, in test [2], the “reduction of TNF-a accumulation during iv infusion of LPS” value is reported as “reduce TNF-a accumulation”; the “inhibitory effect on plasma TNF-a compared to native a-MSH” value is given as “markedly more pronounced”; the “TNF-a concentration in plasma, %” value is listed as 9±1%; the “dose at which the maximal inhibitory effect on TNF-a is achieved” value came out at 200 μg/kg body weight. Also, in test [2] (listed as SEQ ID NO: 5*), the “inhibitory effect on plasma TNF-a compared to native a-MSH” value is on record as “higher degree” and the “reduction of TNF-a accumulation during iv infusion of LPS” value is “significantly inhibit”. Further, in test [3], the “dose dependent reduction” value is on record as “dose dependently reduce”; the “inhibitory effect on TNF-a accumulation compared to native a-MSH” value was “markedly more pronounced”; the “LPS induced TNF-a accumulation, %” value came to 42±111%; the “concentration at which the maximal inhibitory effect on LPS-induced TNF-α production was achieved” value is given as 10^−7 M.

For “Ac-Lys-Lys-Lys-Lys-Lys-Lys-Ser-Tyr-Ser-Nle-Glu-His-D-Nal-Arg-Trp-Gly-Lys-Pro-Val-NH2 (KKKKKKSYSXEHXRWGKPV; not fully specified; N-acetyl, Nle, D-Nal, C-amide) [a-MSH analogue #3]”, in test [2], the “reduction of TNF-a accumulation during iv infusion of LPS” value is “reduce TNF-a accumulation”; the “inhibitory effect on plasma TNF-a compared to native a-MSH” value was “markedly more pronounced”; the “TNF-a concentration in plasma, %” value is on record as 11±3%; the “dose at which the maximal inhibitory effect on TNF-a is achieved” value was 200 μg/kg body weight. In test [2] (listed as SEQ ID NO: 9*), the “inhibitory effect on plasma TNF-a compared to native a-MSH” value was “higher degree” and the “reduction of TNF-a accumulation during iv infusion of LPS” value was “significantly inhibit”. In test [3], the “dose dependent reduction” value is recorded as “dose dependently reduce”; the “inhibitory effect on TNF-a accumulation compared to native a-MSH” value was “markedly more pronounced”; the “LPS induced TNF-a accumulation, %” value was 53±13%.

Regarding “Ser-Tyr-Ser-Met-Glu-His-Phe-Arg-Trp-Gly-Lys-Pro-Val [a-MSH, reference compound]”, the “Plasma Mg” value in test [1] amounted to 0.37 ± 0.04 mM. Also, in test [2], the “reduction of TNF-a accumulation during iv infusion of LPS” value is on record as “reduce TNF-a accumulation; also recorded: reduce TNF-α accumulation”; the “TNF-a concentration in plasma, %” value was 17±3% and 17±30%; the “dose at which the maximal inhibitory effect on TNF-a is achieved” value is 200 μg/kg body weight. Further, in test [3], the “dose dependent reduction” value is on record as “dose dependently reduce” and the “LPS induced TNF-a accumulation, %” value was 73±9%. In test [3] (listed as α-MSH), the “concentration at which the maximal inhibitory effect on LPS-induced TNF-α production was achieved” value is reported as 10^−7 M.
